Counter-ions that a name gives are not always drawn.
Assays:
[1] = target: T1, Broad substrate specificity ATP-binding cassette transporter ABCG2 (Homo sapiens, UniProt Q9UNQ0); experiment: (§1) TP_TRANSPORTER: uptake (vesicle) in membrane vesicles from ABCG2-expressing P388 cells; format: functional, cell membranes; conditions: mouse
T1 sequence (Q9UNQ0 whole entry): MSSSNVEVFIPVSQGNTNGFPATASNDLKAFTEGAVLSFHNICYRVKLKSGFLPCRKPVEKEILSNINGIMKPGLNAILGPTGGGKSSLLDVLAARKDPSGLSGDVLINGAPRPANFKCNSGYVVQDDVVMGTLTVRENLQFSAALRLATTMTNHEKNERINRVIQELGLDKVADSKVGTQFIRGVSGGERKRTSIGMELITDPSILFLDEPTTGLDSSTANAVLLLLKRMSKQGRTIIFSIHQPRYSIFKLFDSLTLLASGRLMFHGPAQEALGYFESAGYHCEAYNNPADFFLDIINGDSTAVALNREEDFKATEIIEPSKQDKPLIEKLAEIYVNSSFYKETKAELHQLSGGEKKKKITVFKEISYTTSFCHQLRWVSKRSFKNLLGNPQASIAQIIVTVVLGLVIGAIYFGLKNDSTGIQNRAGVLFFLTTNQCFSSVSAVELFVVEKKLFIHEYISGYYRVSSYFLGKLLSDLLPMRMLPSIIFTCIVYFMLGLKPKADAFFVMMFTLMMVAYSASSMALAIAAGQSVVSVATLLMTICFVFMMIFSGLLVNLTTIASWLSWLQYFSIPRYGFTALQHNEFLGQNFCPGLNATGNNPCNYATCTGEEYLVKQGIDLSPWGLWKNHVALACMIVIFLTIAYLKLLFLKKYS

ABCG2 [2] = target: T2, ABCG2 (Homo sapiens, UniProt Q9UNQ0); experiment: TP_TRANSPORTER: inhibition of E1S uptake by Doxorubicin at a concentration of 1000uM in membrane vesicles from ABCG2-expressing P388 cells; format: functional, cell membranes, Membrane vesicle; set-up: scale not given: the % may be the effect or the level left; conditions: mouse, probe E1S, read-out: Activity
T2 sequence (Q9UNQ0 whole entry): T1 sequence (Q9UNQ0 whole entry)

[3] = target: T1, Broad substrate specificity ATP-binding cassette transporter ABCG2; experiment: TP_TRANSPORTER: inhibition of E1S uptake by 6-hydroxy-5,7-dimetyl-2-metylamino-4-(3-pyridylmethyl) benzothiazole glucronid at a concentration of 250uM in membrane vesicles from ABCG2-expressing P388 cells; format: functional, cell membranes, Membrane vesicle; set-up: scale not given: the % may be the effect or the level left; conditions: mouse, p388, 250 µM
ABCG2 [4] = target: T2, ABCG2; experiment: TP_TRANSPORTER: inhibition of E1S uptake by 4-Methylumbelliferone glucuronide at a concentration of 500uM in membrane vesicles from ABCG2-expressing P388 cells; format: functional, cell membranes, Membrane vesicle; set-up: scale not given: the % may be the effect or the level left; conditions: mouse, probe E1S, read-out: Activity
ABCG2 [5] = target: T2, ABCG2; experiment: TP_TRANSPORTER: inhibition of E1S uptake by 2.4-dinitrophenyl-S-glutathione at a concentration of 80uM in membrane vesicles from ABCG2-expressing P388 cells; format: functional, cell membranes, Membrane vesicle; set-up: scale not given: the % may be the effect or the level left; conditions: mouse, probe E1S, read-out: Activity
ABCG2 [6] = target: T2, ABCG2; experiment: TP_TRANSPORTER: inhibition of E1S uptake by Estrone at a concentration of 200uM in membrane vesicles from ABCG2-expressing P388 cells; format: functional, cell membranes, Membrane vesicle; set-up: scale not given: the % may be the effect or the level left; conditions: mouse, probe E1S, read-out: Activity
ABCG2 [7] = target: T2, ABCG2; experiment: TP_TRANSPORTER: inhibition of E1S uptake by Pravastatin at a concentration of 200uM in membrane vesicles from ABCG2-expressing P388 cells; format: functional, cell membranes, Membrane vesicle; set-up: scale not given: the % may be the effect or the level left; conditions: mouse, probe E1S, read-out: Activity
[8] = substrate: Cc1cc(=O)oc2cc(OS(=O)(=O)O)ccc12; experiment: TP_TRANSPORTER: uptake (vesicle) in membrane vesicle from ABCG2-expressing mouse lymphoma(P388)cells; format: functional, cell membranes
[9] = substrate: CNc1nc2c(Cc3cccnc3)c(C)c(OS(=O)(=O)O)c(C)c2s1; experiment: as §1; format: functional, cell membranes
[10] = substrate: C[C@]12CC[C@@H]3c4ccc(OS(=O)(=O)O)cc4CC[C@H]3[C@@H]1CCC2=O; experiment: as §1; format: functional, cell membranes

`CNc1nc2c(Cc3cccnc3)c(C)c(OS(=O)(=O)O)c(C)c2s1` [E3040 SULFATE] was tested. Which Activity [1] did it give?
The Activity was “substrate []”.

How did the Activity [1] turn out when `C[C@]12CC[C@H](OS(=O)(=O)O)CC1=CC[C@@H]1[C@@H]2CC[C@]2(C)C(=O)CC[C@@H]12` [PRASTERONE SULFURIC ACID] was run?
Its Activity is “substrate []”.

`C[C@]12CC[C@@H]3c4ccc(O)cc4CC[C@H]3[C@@H]1CC[C@@H]2O[C@@H]1O[C@H](C(=O)O)[C@@H](O)[C@H](O)[C@H]1O` [ESTRADIOL 17B GLUCURONIDE] was tested. Which Activity [1] did it give?
The Activity was “substrate []”.

Which activity at 1000 µM (ABCG2 [2]) does the source give for `COc1cccc2c1C(=O)c1c(O)c3c(c(O)c1C2=O)C[C@@](O)(C(=O)CO)C[C@@H]3O[C@H]1C[C@H](N)[C@H](O)[C@H](C)O1` [DOXORUBICIN] here?
The activity at 1000 µM was 72%.

With `Cc1cc(=O)oc2cc(OS(=O)(=O)O)ccc12` as the molecule, how does the Activity [1] read?
The Activity was “substrate []”.

How did the Activity [1] turn out when `CNc1nc2c(Cc3cccnc3)c(C)c(O[C@@H]3O[C@H](C(=O)O)[C@@H](O)[C@H](O)[C@H]3O)c(C)c2s1` [E3040 GLUCURONIDE] was run?
The Activity was “substrate []”.

And the Activity [3]?
The Activity was 76%.

For `O=C(O)[C@H]1O[C@@H](OCc2cc(=O)oc3cc(O)ccc23)[C@H](O)[C@@H](O)[C@@H]1O`, which activity at 500 µM (ABCG2 [4]) is on record?
Its activity at 500 µM is 84%.

What about the Activity [1] of the same molecule?
Its Activity is “substrate []”.

Which results are given for `N[C@@H](CCC(=O)N[C@H](CSc1ccc([N+](=O)[O-])cc1[N+](=O)[O-])C(=O)NCC(=O)O)C(=O)O`?
activity at 80 µM (ABCG2 [5]): 78%; Activity [1]: substrate []

For `C[C@]12CC[C@@H]3c4ccc(O)cc4CC[C@H]3[C@@H]1CCC2=O` [ESTRONE], which activity at 200 µM (ABCG2 [6]) is on record?
Its activity at 200 µM is 56%.

For `CC[C@H](C)C(=O)O[C@H]1C[C@H](O)C=C2C=C[C@H](C)[C@H](CC[C@@H](O)C[C@@H](O)CC(=O)O)[C@H]21` [PRAVASTATIN], which activity at 200 µM (ABCG2 [7]) is on record?
The activity at 200 µM was 76%.

`CN(Cc1cnc2nc(N)nc(N)c2n1)c1ccc(C(=O)N[C@@H](CCC(=O)O)C(=O)O)cc1` [METHOTREXATE] was tested. Which Activity [1] did it give?
Its Activity is “substrate []”.

B1: Broad substrate specificity ATP-binding cassette transporter ABCG2 (Homo sapiens) (protein)
chain: T1 sequence (Q9UNQ0 whole entry)
For B1, which Km [8] is on record?
Its Km is 13 µM.

What about the Km [9] of the same molecule?
The Km was 27 µM.

What about the Km [10] of the same molecule?
The Km was 17 µM.
